Measured values: article PMC10478077 (Journal of medicinal chemistry, 2019)

Key:
[1] = molecular target: Mtb fumarase (Mycobacterium tuberculosis, UniProt P9WN93); assay: Biochemical assay of Mtb fumarase enzymatic activity; conditions: for Inhibition (%) at 50 μM: 50 μM ligand concentration
[2] = test system: H37Rv Mycobacterium tuberculosis; assay: Antimicrobial susceptibility testing; type: cell-based; conditions: for bactericidal activity: H37Rv Mtb
[3] = test system: Mtb; conditions: cited from earlier work

Mtb fumarase, sequence (P9WN93 whole entry): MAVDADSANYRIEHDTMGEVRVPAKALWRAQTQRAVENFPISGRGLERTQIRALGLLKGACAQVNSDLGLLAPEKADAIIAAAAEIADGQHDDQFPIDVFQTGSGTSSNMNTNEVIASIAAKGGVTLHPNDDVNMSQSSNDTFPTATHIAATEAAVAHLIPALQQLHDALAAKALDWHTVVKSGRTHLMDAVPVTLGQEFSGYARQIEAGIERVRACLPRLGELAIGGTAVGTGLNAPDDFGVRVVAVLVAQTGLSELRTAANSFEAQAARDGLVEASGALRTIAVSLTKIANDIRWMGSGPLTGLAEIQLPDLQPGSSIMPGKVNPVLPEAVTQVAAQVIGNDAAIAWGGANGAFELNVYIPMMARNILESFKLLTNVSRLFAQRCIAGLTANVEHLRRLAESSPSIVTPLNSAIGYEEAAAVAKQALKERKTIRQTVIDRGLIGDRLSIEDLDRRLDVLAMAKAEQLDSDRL

Structure (SMILES): COc1ccc(S(=O)(=O)N2CCCCCC2)cc1NC(=O)Cc1ccncc1 [Compound 15i, N-(5-(Azepan-1-ylsulfonyl)-2-methoxyphenyl)-2-(pyridin-4-yl)acetamide]
- Inhibition (%) at 50 μM [1]: eliminated inhibitory activity

Structure (SMILES): COc1ccc(S(=O)(=O)N2CCCCCC2)cc1NC(=O)Cc1noc2ccccc12 [Compound 15e, N-(5-(Azepan-1-ylsulfonyl)-2-methoxyphenyl)-2-(benzo[d]isoxazol-3-yl)acetamide]
- Inhibition (%) at 50 μM [1]: failed to provide inhibition

Structure (SMILES): COc1ccc(S(=O)(=O)N2CCCCCC2)cc1NC(=O)Cn1cnc2ccccc21 [Compound 15f, N-(5-(Azepan-1-ylsulfonyl)-2-methoxyphenyl)-2-(1H-benzo[d]imidazol-1-yl)acetamide]
- Inhibition (%) at 50 μM [1]: failed to provide inhibition

Structure (SMILES): COc1ccc(S(=O)(=O)N2CCCCCC2)cc1NC(=O)Cc1nnc(O)c2ccccc12 [Compound 1, N-(5-(Azepan-1-ylsulfonyl)-2-methoxyphenyl)-2-(4-oxo-3,4-dihydrophthalazin-1-yl)acetamide]
- bactericidal activity [2]: no bactericidal activity
- bactericidal properties [3]: did not exhibit bactericidal properties

Structure (SMILES): COc1ccc(S(=O)(=O)N2CCCCCCC2)cc1NC(=O)Cc1n[nH]c(=O)c2ccccc12 [Compound 16b, N-(5-(Azocan-1-ylsulfonyl)-2-methoxyphenyl)-2-(4-oxo-3,4-dihydrophthalazin-1-yl)acetamide]
- H37Rv Mtb MIC ([2]; 7H9/DPPC medium): highly active
- bactericidal activity [2]: activity was observed

Structure (SMILES): COc1ccc(S(=O)(=O)N2CCCCCC2)cc1NC(=O)Cc1coc2ccccc12 [Compound 15d, N-(5-(Azepan-1-ylsulfonyl)-2-methoxyphenyl)-2-(benzofuran-3-yl)acetamide]
- Inhibition (%) at 50 μM [1]: failed to provide inhibition

Structure (SMILES): COc1ccc(S(=O)(=O)N2CCc3ccccc3CC2)cc1NC(=O)Cc1n[nH]c(=O)c2ccccc12 [Compound 16l, N-(2-Methoxy-5-((1,2,4,5-tetrahydro-3H-benzo[d]azepin-3-yl)sulfonyl)phenyl)-2-(4-oxo-3,4-dihydrophthalazin-1-yl)acetamide]
- IC50 fold lower than that of 1 ([1]; relative to 1 (IC50 2.0 μM)): 3 fold
